Reference: article PMC4170656 (Developmental cell, 2014)
Numbering of substitutions follows the chain as printed.

Tests used:
Format in all cases: binding
[1] = molecular target: T1, His:AKR2A (full-length AKR2A) (Arabidopsis thaliana, UniProt Q9SAR5); test: SPR, lipid vesicles on L1 chip; conditions: POPG/POPC/MGDG [50:(50−x):x] vesicles; pH 7.4, 0.16 M NaCl, 23°C
T1 sequence (Q9SAR5 1-342): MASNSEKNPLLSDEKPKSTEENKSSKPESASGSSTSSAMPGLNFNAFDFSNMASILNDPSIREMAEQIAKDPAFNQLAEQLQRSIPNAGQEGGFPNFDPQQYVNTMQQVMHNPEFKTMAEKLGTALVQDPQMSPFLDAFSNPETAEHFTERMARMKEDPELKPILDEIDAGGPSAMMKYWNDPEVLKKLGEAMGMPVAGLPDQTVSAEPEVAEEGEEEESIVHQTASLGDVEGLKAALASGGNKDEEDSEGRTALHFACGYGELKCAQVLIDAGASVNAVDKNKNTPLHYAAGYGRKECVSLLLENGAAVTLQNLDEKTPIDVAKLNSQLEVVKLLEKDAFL

[2] = molecular target: T2, His:ARD (ankyrin repeat domain of AKR2A) (Arabidopsis thaliana, UniProt Q9SAR5, E246A); test: SPR sensorgrams, lipid vesicles on L1 chip; conditions: POPG/POPC (50:50) vesicles; pH 7.4, 0.16 M NaCl, 23°C; L1 site
T2 sequence (Q9SAR5 211-342 E246A): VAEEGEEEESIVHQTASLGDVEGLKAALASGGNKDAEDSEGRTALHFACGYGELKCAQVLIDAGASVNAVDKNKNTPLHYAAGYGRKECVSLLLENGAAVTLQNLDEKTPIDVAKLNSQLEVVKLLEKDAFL

[3] = molecular target: T3, His:ARD (ankyrin repeat domain of AKR2A) (Arabidopsis thaliana, UniProt Q9SAR5, N314A); test: SPR sensorgrams, lipid vesicles on L1 chip; conditions: POPG/POPC (50:50) vesicles; pH 7.4, 0.16 M NaCl, 23°C; L3 site
T3 sequence (Q9SAR5 211-342 N314A): T2 sequence (Q9SAR5 211-342 E246A) with A36E, N104A

[4] = molecular target: T4, His:ARD (ankyrin repeat domain of AKR2A) (Arabidopsis thaliana, UniProt Q9SAR5, H223A); test: SPR sensorgrams, lipid vesicles on L1 chip; conditions: POPG/POPC (50:50) vesicles; pH 7.4, 0.16 M NaCl, 23°C; L1 site
T4 sequence (Q9SAR5 211-342 H223A): T2 sequence (Q9SAR5 211-342 E246A) with H13A, A36E

[5] = molecular target: T5, His:ARD (ankyrin repeat domain of AKR2A) (Arabidopsis thaliana, UniProt Q9SAR5, Y294A); test: SPR sensorgrams, lipid vesicles on L1 chip; conditions: POPG/POPC (50:50) vesicles; pH 7.4, 0.16 M NaCl, 23°C; L2 site
T5 sequence (Q9SAR5 211-342 Y294A): T2 sequence (Q9SAR5 211-342 E246A) with A36E, Y84A

[6] = molecular target: T6, His:ARD (ankyrin repeat domain of AKR2A) (Arabidopsis thaliana, UniProt Q9SAR5, L315A); test: SPR sensorgrams, lipid vesicles on L1 chip; conditions: POPG/POPC (50:50) vesicles; pH 7.4, 0.16 M NaCl, 23°C; L3 site
T6 sequence (Q9SAR5 211-342 L315A): T2 sequence (Q9SAR5 211-342 E246A) with A36E, L105A

[7] = molecular target: T7, His:ARD (ankyrin repeat domain of AKR2A) (Arabidopsis thaliana, UniProt Q9SAR5, R296A); test: SPR sensorgrams, lipid vesicles on L1 chip; conditions: POPG/POPC (50:50) vesicles; pH 7.4, 0.16 M NaCl, 23°C; L2 site
T7 sequence (Q9SAR5 211-342 R296A): T2 sequence (Q9SAR5 211-342 E246A) with A36E, R86A

Structure (SMILES): CCCCCCCC/C=C\CCCCCCCC(=O)O[C@H](COC(=O)CCCCCCCCCCCCCCC)COP(=O)(O)OCC(O)CO (stereo partly shown) [POPG]
- SPR, lipid vesicles on L1 chip [1]: MGDG-dependent vesicle binding of full-length (FL) AKR2A (red) and ARD (blue)
- SPR sensorgrams, lipid vesicles on L1 chip [2]: The L1 site mutants H223A and E246A also had a significantly lower binding affinity
- SPR sensorgrams, lipid vesicles on L1 chip [3]: the L3 site mutants (N314A and L315A) showed only modestly reduced binding
- SPR sensorgrams, lipid vesicles on L1 chip [4]: The L1 site mutants H223A and E246A also had a significantly lower binding affinity
- SPR sensorgrams, lipid vesicles on L1 chip [5]: the L2 site mutants (Y294A and R296A) showed significantly lower binding than WT
- SPR sensorgrams, lipid vesicles on L1 chip [6]: the L3 site mutants (N314A and L315A) showed only modestly reduced binding
- SPR sensorgrams, lipid vesicles on L1 chip [7]: the L2 site mutants (Y294A and R296A) showed significantly lower binding than WT
